Target: T1, Thrombin (Factor IIa) (Homo sapiens, UniProt P00734)
T1 construct: purchased Centraal Laboratorium voor Bloedtransfusie, Amsterdam, The Netherlands
Test: Anti-thrombin assay (hydrolysis of chromogenic substrate S-2238)
Format: biochemical
Details: chromogenic substrate S-2238, TNP buffer, 37° C., absorbance at 405 nm
Procedure: Thrombin (Factor IIa) is a factor in the coagulation cascade. The anti-thrombin activity of compounds of the present invention was assessed by measuring spectrophotometrically the rate of hydrolysis of the chromogenic substrate s-2238 exterted by thrombin. This assay for anti-thrombin activity in a buffer system was used to assess the IC50-value of a test compound.
Test medium: Tromethamine-NaCl-polyethylene glycol 6000 (TNP) buffer. Reference compound: 12581 (Kabi) Vehicle: TNP buffer. Solubilisation can be assisted with dimethylsulphoxide, methanol, ethanol, acetonitrile or tert-butyl alcohol which are without adverse effects in concentrations up to 2.5% in the final reaction mixture.
Reagents*: 1. Tromethamine-NaCl (TN) buffer. Composition of the buffer: Tromethamine (Tris) 6.057 g (50 mmol), NaCl 5.844 g (100 mmol), water to 1 l. The pH of the solution is adjusted to 7.4 at 37° C. with HCl (10 mmol·l^−1). 2. TNP buffer: Polyethylene glycol 6000 is dissolved in TN buffer to give a concentration of 3 g·l^−1. 3. S-2238 solution: One vial S-2238 (25 mg; Kabi Diagnostica, Sweden) is dissolved in 20 ml TN buffer to give a concentration of 1.25 mg·ml^−1 (2 mmol·l^−1). 4. Thrombin solution: Human thrombin (16 000 nKat·vial^−1; Centraal Laboratorium voor Bloedtransfusie, Amsterdam, The Netherlands) is dissolved in TNP buffer to give a stock solution of 835 nKat·ml^−1. Immediately before use this solution is diluted with TNP buffer to give a concentration of 3.34 nKat·ml^−1.
The test and reference compounds are dissolved in Milli-Q water to give stock concentrations of 10^−2 mol·l^−1. Each concentration is stepwise diluted with the vehicle to give concentrations of 10^−3, 10^−4 and 10^−5 mol·l^−1. The dilutions, including the stock solution, are used in the assay (final concentrations in the reaction mixture: 3·10^−3; 10^−3; 3·10^−4; 10^−4; 3·10^−5; 10^−5; 3·10^−6; and 10^−6 mol·l^−1, respectively).
At room temperature 0.075 ml and 0.025 ml test compound or reference compound solutions or vehicle are alternately pipetted into the wells of a microtiter plate and these solutions are diluted with 0.115 ml and 0.0165 ml TNP buffer, respectively. An aliquot of 0.030 ml S-2238 solution is added to each well and the plate is pre-heated and pre-incubated with shaking in an incubator (Amersham) for 10 min. at 37° C. Following pre-incubation the hydrolysis of S-2238 is started by addition of 0.030 ml thrombin solution to each well. The plate is incubated (with shaking for 30 s) at 37° C. Starting after 1 min of incubation, the absorbance of each sample at 405 nm is measured every 2 min. for a period of 90 min. using a kinetic microtiter plate reader (Twinreader plus, Flow Laboratories).
All data are collected in an IBM personal computer using LOTUS-MEASURE. For each compound concentration (expressed in mol·l^−1 reaction mixture) and for the blank the absorbance is plotted versus the reaction time in min.
Evaluation of responses: For each final concentration the maximum absorbance was calculated from the assay plot. The IC50-value (final concentration, expressed in μmol·l^−1, causing 50% inhibition of the maximum absorbance of the blank) was calculated using the logit transformation analysis according to Hafner et al. (Arzneim.-Forsch./Drug Res. 1977; 27(II): 1871-3).

SMILES | IC50 [µM]
NCC#CCC(NC(=O)C1CCCN1C(=O)C(CC1CCCCC1)NCC(=O)O)C(=O)c1nccs1 (stereo not drawn) [Example 1] | 0.56
CNC(CC1CCCCC1)C(=O)N1CCCC1C(=O)NC(CC#CCN)C(=O)C(=O)O [Example 3, N-Me-D-Cha-Pro-LysininylΨ[COCO]—OH] | 4.3
NCC#CCC(NC(=O)C1CCCN1C(=O)C(Cc1ccccc1)NCC(=O)O)C(=O)C(=O)O [Example 11, HOOC—CH2-D-Phe-Pro-LysininylΨ[COCO]—OH] | 5
NCC#CCC(NC(=O)C1CCCN1C(=O)C(CC1CCCCC1)NCC(=O)O)C(=O)C(=O)N1CCC1 (stereo not drawn) [Example 15] | 0.7
NCC#CCC(NC(=O)C1CCCN1C(=O)C1NCCC2CCCCC21)C(=O)c1nccs1 (stereo not drawn) [Example 27] | 4.64
NCCCCC(NC(=O)[C@@H]1CCCN1C(=O)[C@@H](Cc1ccc(Cl)cc1)NCC(=O)O)C(=O)c1nccs1 (stereo partly drawn) [Example 30, HOOC—CH2-D-p-Cl-Phe-Pro-Lysininyl-(2-thiazolyl)] | 5.1
